Entries after “also recorded” stand apart in the source; their conditions may differ.
Legend:
[1] = Rat PK, single oral gavage; type: in vivo; conditions: single dose 0.1 mg/kg; for AUC / Rat AUC: PEG 300; for half-life: read-out: Rat T1/2 (converted)
[2] = Mouse PK, single oral gavage; conditions: single dose 0.3 mg/kg; for AUC: Mouse AUC; for half-life: Mouse T1/2, oral gavage; for Tmax: Mouse Tmax
[3] = test system: Neonatal rat ventricular myocytes (NRVM) expressing 2157del2 JUP; assay: Immunofluorescence of junction proteins in ACM in vitro model; type: cell-based; conditions: Jup2157del2 myocytes; for ACM disease features overall (plakoglobin, Cx43, pRelA/p65, TUNEL), sEH inhibitors: 2.017 500 nM, 1.045 1 μM, concentration not given for 1,002 and 3.023; for ACM disease features/readouts overall, EET and EEZE: 10 μM
Experimental: Neonatal rat ventricular myocytes (NRVM) were isolated from the ventricles of 1-day-old Wistar rat pups and plated on collagen-coated plastic chambers. 24 hours following seeding, the cells were transfected with an adenoviral construct expressing a mutant form of plakoglobin known to cause arrhythmogenic cardiomyopathy in patients (2157del2 JUP). […] Non-transfected cultures and cultures transfected with the adenoviral construct only served as negative and positive controls, respectively.
Immunofluorescence: Cell cultures were fixed with 4% paraformaldehyde and prepared for immunofluorescence analysis as previously described (1). […] Cy3-conjugated goat anti-mouse and anti-rabbit antibodies (Jackson Immunolabs) were used as secondary antibodies and DAPI was used to visualize the nuclei. Immunostained preparations were visualized by confocal microscopy and changes in spatial distribution of signal were assessed qualitatively.

[4] = biological target: T1, soluble epoxide hydrolase (sEH) (Homo sapiens, UniProt P34913); assay: Human in vitro Ki and dissociation t1/2 from the enzyme (fluorescence signals); type: binding; conditions: based on fluorescence signals
T1 sequence (P34913 1-555): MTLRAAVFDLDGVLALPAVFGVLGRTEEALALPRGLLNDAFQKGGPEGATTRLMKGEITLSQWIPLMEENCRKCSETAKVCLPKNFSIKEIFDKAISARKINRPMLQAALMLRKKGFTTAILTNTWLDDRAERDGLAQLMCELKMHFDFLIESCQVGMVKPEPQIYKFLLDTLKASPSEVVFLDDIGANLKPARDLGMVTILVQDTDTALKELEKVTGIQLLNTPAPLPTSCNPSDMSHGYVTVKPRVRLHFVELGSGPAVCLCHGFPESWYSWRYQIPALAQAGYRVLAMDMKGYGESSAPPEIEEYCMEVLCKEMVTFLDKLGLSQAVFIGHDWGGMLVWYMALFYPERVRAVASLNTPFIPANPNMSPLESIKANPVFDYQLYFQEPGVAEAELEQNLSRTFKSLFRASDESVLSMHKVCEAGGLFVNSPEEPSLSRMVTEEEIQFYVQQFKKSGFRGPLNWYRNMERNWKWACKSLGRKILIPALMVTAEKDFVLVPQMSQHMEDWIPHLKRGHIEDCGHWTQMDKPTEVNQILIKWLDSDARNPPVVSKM

[5] = mouse, in vivo, po, 0.3 mg/kg, oral gavage, 20% PEG400 in oleic acid-rich triglyceride
[6] = mouse, in vivo, po, 0.3 mg/kg, Mouse Cmax, oral gavage
[7] = mouse, in vivo, po, 0.3 mg/kg, oral gavage

| SMILES | Cmax ([1]; rat, in vivo) [nM] | Tmax ([1]; rat, in vivo) [h] | AUC ([1]; rat, in vivo) [µM·h] | half-life ([1]; rat, in vivo) [h] | AUC [2, 5] [µM·h] | Cmax [2, 6] [nM] | half-life ([2]; mouse, in vivo, po, 0.3 mg/kg) [h] | Tmax [2, 7] [h] | also measured |
| --- | --- | --- | --- | --- | --- | --- | --- | --- | --- |
| O=C(Nc1ccc(OC(F)(F)F)c(F)c1)NC1CCN(C(=O)C2(C(F)(F)F)CC2)CC1 | 41 ± 3 | 4.3 ± 0.4 | 0.486 ± 0.087 | 2.9 ± 0.3 | 0.0997 ± 0.0001 | – | – | – | – |
| CC[C@H](C)C(=O)N1CCC(NC(=O)Nc2ccc(OC(F)(F)F)c(F)c2)CC1 [Compound 1.002] | – | – | – | – | – | – | – | – | ACM disease features overall (plakoglobin, Cx43, pRelA/p65, TUNEL), sEH inhibitors [3]: showed similar results |
| CCCCCC1OC1C/C=C\C/C=C\C/C=C\CCCC(=O)O (centres unmarked) [14,15-EET, reference compound] | – | – | – | – | – | – | – | – | ACM disease features/readouts overall, EET and EEZE [3]: produced potent salutary effects; also recorded: reversed |
| CC(C)C(=O)N1CCC(CC(=O)Nc2ccc(OC(F)(F)F)c(F)c2)CC1 | 17 ± 2 | 1.6 ± 0.1 | 0.066 ± 0.011 | 1.2 ± 0.2 | – | – | – | – | – |
| O=C(Nc1ccc(OC(F)(F)F)cc1)NC1CCN(C(=O)C2CCOCC2)CC1 | 23 ± 1 | 4.4 ± 0.2 | 0.234 ± 0.019 | 3.7 ± 0.6 | 5.06 | 460 | 2.8 | 4.1 | – |
| O=C(O)CC1(CC(=O)N2CCC(NC(=O)Nc3ccc(C(F)(F)F)cc3)CC2)CCCCC1 | – | – | – | – | 11.6 | 590 | 5 | 7.4 | – |
| Cc1ccoc1C(=O)N1CCC(NC(=O)Nc2ccc(OC(F)(F)F)cc2)CC1 | – | – | – | – | 4.56 | 294 | 3.9 | 5.7 | – |
| O=C(Nc1ccc(OC(F)(F)F)cc1)NC1CCN(C(=O)C2CCCOC2)CC1 (centres unmarked) | – | – | – | – | 0.634 | 31 | 5.3 | 7.6 | – |
| O=C(Nc1ccc(OC(F)(F)F)c(F)c1)NC1CCN(C(=O)C2CCOCC2)CC1 | 103 ± 8 | 3.1 ± 0.2 | 1.24 ± 0.063 | 6.2 ± 0.4 | 0.0985 ± 0.0001 | – | – | – | – |
| O=C(Nc1ccc(OC(F)(F)F)cc1)NC1CCN(C(=O)C2=COCC2)CC1 | – | – | – | – | 0.67 | 58 | 2.9 | 4.2 | – |
| O=C(Nc1ccc(OC(F)(F)F)cc1)NC1CCN(C(=O)C2CCOC2)CC1 (centres unmarked) | – | – | – | – | 12.6 | 703 | 4.6 | 6.6 | – |
| CCC(=O)N1CCC(NC(=O)Nc2ccc(OC(F)(F)F)cc2)CC1 [drawing 62] | 133 ± 4 | 2.3 ± 0.4 | 1.08 ± 0.089 | 6 ± 0.7 | – | – | – | – | Mouse T1/2 ([2]; oral gavage): 12.1 h; Mouse AUC ([2]; oral gavage, 20% PEG400 in oleic acid-rich triglyceride): 10.65 µM·h; Cmax ([2]; read-out: Mouse Cmax, oral gavage): 495 nM |
| O=C(Nc1ccc(OC(F)(F)F)cc1)N[C@H]1CC[C@H](Oc2ccc(C(=O)O)cc2)CC1 [Compound 3.023] | – | – | – | – | – | – | – | – | ACM disease features overall (plakoglobin, Cx43, pRelA/p65, TUNEL), sEH inhibitors [3]: showed similar results |
| O=C(Nc1ccc(OC(F)(F)F)cc1)NC1CCN(C(=O)c2ccoc2)CC1 | – | – | – | – | 2.93 | 146 | 5.1 | 7.3 | – |
| O=C(Nc1ccc(OC(F)(F)F)c(F)c1)NC1CCN(C(=O)[C@@H]2CCOC2)CC1 | 84 ± 6 | 2.9 ± 0.3 | 0.869 ± 0.127 | 3.8 ± 0.6 | 0.0973 ± 0.0001 | 2550 | 174 | 3.7 | – |
| O=C(Nc1ccc(OC(F)(F)F)c(F)c1)NC1CCN(C(=O)N2CCOCC2)CC1 | 40 ± 2 | 2.9 ± 0.3 | 0.327 ± 0.032 | 3.6 ± 0.6 | 0.0982 ± 0.0001 | – | – | – | – |
| Cc1occc1C(=O)N1CCC(NC(=O)Nc2ccc(OC(F)(F)F)cc2)CC1 | 133 ± 4 | 2.3 ± 0.4 | 1.08 ± 0.089 | 6 ± 0.7 | 9.99 | 409 | 6.2 | 9 | – |
| CCCCCC1OC1CCCCCCC/C=C\CCCC(=O)O (centres unmarked) [14,15-EE-5(Z)E, reference compound] | – | – | – | – | – | – | – | – | ACM disease features/readouts overall, EET and EEZE [3]: intensified ACM disease readouts; also recorded: intensifies these ACM disease features; also recorded: intensified these ACM features |
| O=C(Nc1ccc(OC(F)(F)F)c(F)c1)NC1CCN(C(=O)C2CCCOC2)CC1 (centres unmarked) | 43 ± 3 | 2.6 ± 0.2 | 0.328 ± 0.018 | 3.7 ± 0.5 | 0.0994 ± 0.0001 | 24700 | 1050 | 6 | – |
| CC[C@H](C)C(=O)N1CCC(NC(=O)Nc2ccc(C(F)(F)F)nc2)CC1 | – | – | – | – | – | – | – | – | Human In vitro t1/2 (time for half of the drug being dissociated from the enzyme) [4]: 3.7 min |

More lines, main results first:

| Cmax ([1]; rat, in vivo) [nM] | Tmax ([1]; rat, in vivo) [h] | AUC ([1]; rat, in vivo) [µM·h] | half-life ([1]; rat, in vivo) [h] | AUC [2, 5] [µM·h] | Cmax [2, 6] [nM] | half-life ([2]; mouse, in vivo, po, 0.3 mg/kg) [h] | Tmax [2, 7] [h] | SMILES | also measured |
| --- | --- | --- | --- | --- | --- | --- | --- | --- | --- |
| 84 ± 5 | 2.8 ± 0.3 | 0.637 ± 0.085 | 2.7 ± 0.4 | 4.78 | 162 | 4.8 | 5.9 | CC(C)C(=O)N1CCC(NC(=O)Nc2ccc(OC(F)(F)F)c(F)c2)CC1 | – |
| – | – | – | – | 0.729 | 154 | 1.2 | 1.7 | O=C(Nc1ccc(C(F)(F)F)cc1)NC1CCN(C(=O)[C@@H]2CCOC2)CC1 | – |
| 38 ± 3 | 1.8 ± 0.2 | 0.212 ± 0.022 | 2.4 ± 0.3 | 9.65 | 518 | 6.2 | 7.9 | CC(C)C(=O)N1CCC(NC(=O)Nc2ccc(C(F)(F)F)c(F)c2)CC1 | – |
| – | – | – | – | – | 6490 | 356 | 4.7 | O=C(Nc1ccc(C(F)(F)F)cc1)NC1CCN(C(=O)C2(C(F)(F)F)CC2)CC1 | – |
| 54 ± 3 | 2.5 ± 0.2 | 0.391 ± 0.031 | 3 ± 0.4 | 5.26 | 376 | 3.6 | 5.2 | O=C(Nc1ccc(C(F)(F)F)cc1)NC1CCN(C(=O)C2CCOCC2)CC1 | – |
| – | – | – | – | 3.17 | 199 | 4.1 | 5.9 | O=C(Nc1ccc(C(F)(F)F)cc1)NC1CCN(C(=O)C2CCCOC2)CC1 (centres unmarked) | – |
| 308 ± 16 | 3.4 ± 0.3 | 3.55 ± 0.271 | 4.4 ± 0.4 | 0.794 | 28 | 4.2 | 7.3 | O=C(Nc1ccc(C(F)(F)F)cc1)NC1CCN(C(=O)c2ccoc2)CC1 | – |
| 11 ± 1 | 2.5 ± 0.2 | 0.075 ± 0.006 | 2.3 ± 0.4 | ≥ 0.0999 | – | – | – | CC[C@H](C)C(=O)N1CCC(NC(=O)Nc2ccc(OC(F)(F)F)c(OC(F)(F)F)c2)CC1 | – |
| 105 ± 16 | 3.7 ± 0.5 | 1.33 ± 0.093 | 4.7 ± 0.8 | ≥ 0.0999 | – | – | – | CCOC(=O)N1CCC(NC(=O)Nc2ccc(OC(F)(F)F)c(F)c2)CC1 | – |
| – | – | – | – | 0.656 | 50 | 3.4 | 6.2 | O=C(Nc1ccc(OC(F)(F)F)cc1)NC1CCN(C(=O)[C@@H]2CCOC2)CC1 | – |
| – | – | – | – | 20.6 | 978 | 5.4 | 8 | CCC(=O)N1CCC(NC(=O)Nc2ccc(OC(F)(F)F)c(F)c2)CC1 | Cmax [1]: 196 ± 12 nM; Rat T1/2 [1]: 4.2 ± 0.8 h; Rat Tmax [1]: 4.5 ± 0.5 h; Rat AUC [1]: 2.701 ± 0.357 µM·h |
| – | – | – | – | 0.083 | 11 | 2 | 2.8 | O=C(Nc1ccc(C(F)(F)F)cc1)NC1CCN(C(=O)c2cc[nH]c2)CC1 | – |
| – | – | – | – | 4.73 | 342 | 6.9 | 6.8 | O=C(Nc1ccc(C(F)(F)F)cc1)NC1CCN(C(=O)C2CCOC2)CC1 (centres unmarked) | – |
| – | – | – | – | 0.875 | 78 | 2.8 | 4.1 | O=C(Nc1ccc(C(F)(F)F)cc1)NC1CCN(C(=O)C2=COCC2)CC1 | – |
| 3.6 ± 0.6 | 1.4 ± 0.1 | 0.016 ± 0.001 | 0.9 ± 0.1 | 0.0995 ± 0.0001 | – | – | – | CC[C@H](C)C(=O)N1CCC(CC(=O)Nc2ccc(OC(F)(F)F)c(F)c2)CC1 | – |
| – | – | – | – | 5.59 | 282 | 5.1 | 7.6 | O=C(Nc1ccc(OC(F)(F)F)c(F)c1)NC1CCN(C(=O)C2CC2)CC1 | Cmax [1]: 95 ± 3 nM; Rat T1/2 [1]: 2.9 ± 0.3 h; Rat Tmax [1]: 4.0 ± 0.1 h; Rat AUC [1]: 1.027 ± 0.065 µM·h |
| 139 ± 9 | 4 ± 0.4 | 1.65 ± 0.042 | 4.5 ± 0.4 | 0.0988 ± 0.0002 | – | – | – | O=C(Nc1ccc(C(F)(F)F)c(F)c1)NC1CCN(C(=O)C2CCOCC2)CC1 | – |
